Laboratory results published in ChEMBL document CHEMBL4507301 (2021).

Tests used:
[1] = molecular target: Serine/threonine-protein kinase MRCK gamma (Homo sapiens) (UniProt Q6DT37); settings: Compound concentration 1000.0 nM
[2] = molecular target: Ankyrin repeat and protein kinase domain-containing protein 1 (Homo sapiens) (UniProt Q8NFD2); settings: Compound concentration 1000.0 nM
[3] = molecular target: Serine/threonine-protein kinase Nek2 (Homo sapiens) (UniProt P51955); settings: Compound concentration 1000.0 nM
[4] = molecular target: Cyclin-dependent kinase 9 (Homo sapiens) (UniProt P50750); settings: Compound concentration 1000.0 nM
Sequence of Cyclin-dependent kinase 9 (Homo sapiens) (P50750 whole entry): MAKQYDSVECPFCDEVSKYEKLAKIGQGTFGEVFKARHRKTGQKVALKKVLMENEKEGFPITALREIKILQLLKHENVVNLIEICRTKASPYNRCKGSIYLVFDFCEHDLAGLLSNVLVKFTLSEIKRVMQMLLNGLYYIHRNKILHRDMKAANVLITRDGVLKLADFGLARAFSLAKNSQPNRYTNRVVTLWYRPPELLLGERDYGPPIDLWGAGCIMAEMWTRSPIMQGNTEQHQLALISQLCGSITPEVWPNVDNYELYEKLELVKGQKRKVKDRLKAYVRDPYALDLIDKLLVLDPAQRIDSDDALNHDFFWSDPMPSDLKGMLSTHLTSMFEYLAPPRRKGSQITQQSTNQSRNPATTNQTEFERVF

[5] = molecular target: Muscarinic acetylcholine receptor M3 (Homo sapiens) (UniProt P20309); settings: Compound concentration 10.0 uM
[6] = molecular target: Serine/threonine-protein kinase mTOR (Homo sapiens) (UniProt P42345); settings: Compound concentration 1000.0 nM
[7] = molecular target: Mitogen-activated protein kinase 14 (Homo sapiens) (UniProt Q16539); settings: Compound concentration 1000.0 nM
[8] = molecular target: Serine/threonine-protein kinase D1 (Homo sapiens) (UniProt Q15139); settings: Compound concentration 1000.0 nM
[9] = molecular target: Serine/threonine-protein kinase 17A (Homo sapiens) (UniProt Q9UEE5); settings: Compound concentration 1000.0 nM
[10] = system: Receptor-type tyrosine-protein kinase FLT3 (Homo sapiens), P36888 [UNDEFINED MUTATION]; settings: Compound concentration 1000.0 nM
[11] = system: Phosphatidylinositol 4,5-bisphosphate 3-kinase catalytic subunit alpha isoform (Homo sapiens), P42336 [I800L]; settings: Compound concentration 1000.0 nM
[12] = molecular target: Tyrosine-protein kinase ABL1 (Homo sapiens) (UniProt P00519); settings: Compound concentration 1000.0 nM
[13] = molecular target: Dual specificity testis-specific protein kinase 1 (Homo sapiens) (UniProt Q15569); settings: Compound concentration 1000.0 nM
Sequence of Dual specificity testis-specific protein kinase 1 (Homo sapiens) (Q15569 whole entry, looked up): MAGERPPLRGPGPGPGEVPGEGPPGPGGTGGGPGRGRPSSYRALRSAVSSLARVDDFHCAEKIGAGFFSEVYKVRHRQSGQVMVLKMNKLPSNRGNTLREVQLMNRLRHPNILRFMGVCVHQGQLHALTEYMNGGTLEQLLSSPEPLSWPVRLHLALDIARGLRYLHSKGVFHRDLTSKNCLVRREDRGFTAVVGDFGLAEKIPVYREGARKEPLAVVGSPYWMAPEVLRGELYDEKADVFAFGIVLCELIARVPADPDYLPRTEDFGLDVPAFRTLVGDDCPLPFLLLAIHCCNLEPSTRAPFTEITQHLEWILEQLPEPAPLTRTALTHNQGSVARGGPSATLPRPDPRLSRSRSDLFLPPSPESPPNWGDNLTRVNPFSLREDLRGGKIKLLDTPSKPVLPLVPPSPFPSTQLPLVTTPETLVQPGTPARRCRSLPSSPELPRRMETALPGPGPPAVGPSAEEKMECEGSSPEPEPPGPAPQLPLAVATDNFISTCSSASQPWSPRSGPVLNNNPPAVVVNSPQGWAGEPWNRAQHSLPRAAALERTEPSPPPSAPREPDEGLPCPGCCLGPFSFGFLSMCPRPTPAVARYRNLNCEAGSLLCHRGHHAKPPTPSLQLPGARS

[14] = molecular target: Serine/threonine-protein kinase PAK 6 (Homo sapiens) (UniProt Q9NQU5); settings: Compound concentration 1000.0 nM
[15] = molecular target: Serine/threonine-protein kinase TBK1 (Homo sapiens) (UniProt Q9UHD2); settings: Compound concentration 1000.0 nM
[16] = molecular target: Ribosomal protein S6 kinase beta-1 (Homo sapiens) (UniProt P23443); settings: Compound concentration 1000.0 nM
[17] = molecular target: Mitogen-activated protein kinase kinase kinase kinase 2 (Homo sapiens) (UniProt Q12851); settings: Compound concentration 1000.0 nM
[18] = molecular target: LIM domain kinase 2 (Homo sapiens) (UniProt P53671); settings: Compound concentration 1000.0 nM
[19] = molecular target: Serine/threonine-protein kinase TAO3 (Homo sapiens) (UniProt Q9H2K8); settings: Compound concentration 1000.0 nM
[20] = molecular target: Cyclin-dependent kinase-like 3 (Homo sapiens) (UniProt Q8IVW4); settings: Compound concentration 1000.0 nM
[21] = molecular target: Cyclin-G-associated kinase (Homo sapiens) (UniProt O14976); settings: Compound concentration 1000.0 nM
[22] = molecular target: Protein kinase C theta type (Homo sapiens) (UniProt Q04759); settings: Compound concentration 1000.0 nM
[23] = molecular target: RAF proto-oncogene serine/threonine-protein kinase (Homo sapiens) (UniProt P04049); settings: Compound concentration 1000.0 nM
[24] = molecular target: Calcium/calmodulin-dependent protein kinase kinase 2 (Homo sapiens) (UniProt Q96RR4); settings: Compound concentration 1000.0 nM
[25] = molecular target: Cyclin-dependent kinase 11B (Homo sapiens) (UniProt P21127); settings: Compound concentration 1000.0 nM
Sequence of Cyclin-dependent kinase 11B (Homo sapiens) (P21127 whole entry): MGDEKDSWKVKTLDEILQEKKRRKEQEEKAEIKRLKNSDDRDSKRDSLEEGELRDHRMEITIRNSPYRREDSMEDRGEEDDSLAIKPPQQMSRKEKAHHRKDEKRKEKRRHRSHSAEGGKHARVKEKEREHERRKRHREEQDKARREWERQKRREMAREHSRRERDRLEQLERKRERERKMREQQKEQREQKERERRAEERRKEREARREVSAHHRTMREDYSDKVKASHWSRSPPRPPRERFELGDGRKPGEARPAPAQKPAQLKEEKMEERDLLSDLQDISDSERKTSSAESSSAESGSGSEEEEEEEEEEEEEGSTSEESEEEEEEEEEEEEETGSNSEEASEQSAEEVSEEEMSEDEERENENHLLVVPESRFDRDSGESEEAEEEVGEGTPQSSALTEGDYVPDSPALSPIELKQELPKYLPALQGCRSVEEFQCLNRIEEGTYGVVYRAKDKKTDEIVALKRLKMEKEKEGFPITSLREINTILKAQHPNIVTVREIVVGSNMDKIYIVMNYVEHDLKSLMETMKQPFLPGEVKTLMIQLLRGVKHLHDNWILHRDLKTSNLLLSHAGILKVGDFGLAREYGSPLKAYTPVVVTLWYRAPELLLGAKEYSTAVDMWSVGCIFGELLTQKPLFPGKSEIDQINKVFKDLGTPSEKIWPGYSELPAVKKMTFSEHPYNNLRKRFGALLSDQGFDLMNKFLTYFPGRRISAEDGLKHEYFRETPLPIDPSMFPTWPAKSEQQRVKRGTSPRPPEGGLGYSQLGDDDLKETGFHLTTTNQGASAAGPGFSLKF

[26] = molecular target: Tyrosine-protein kinase SYK (Homo sapiens) (UniProt P43405); settings: Compound concentration 1000.0 nM
[27] = system: Epidermal growth factor receptor (Homo sapiens), P00533 [L858R]; settings: Compound concentration 1000.0 nM
[28] = molecular target: Dual specificity tyrosine-phosphorylation-regulated kinase 1B (Homo sapiens) (UniProt Q9Y463); settings: Compound concentration 1000.0 nM
[29] = molecular target: SRSF protein kinase 3 (Homo sapiens) (UniProt Q9UPE1); settings: Compound concentration 1000.0 nM
[30] = molecular target: 3-phosphoinositide-dependent protein kinase 1 (Homo sapiens) (UniProt O15530); settings: Compound concentration 1000.0 nM
Sequence of 3-phosphoinositide-dependent protein kinase 1 (Homo sapiens) (O15530 whole entry): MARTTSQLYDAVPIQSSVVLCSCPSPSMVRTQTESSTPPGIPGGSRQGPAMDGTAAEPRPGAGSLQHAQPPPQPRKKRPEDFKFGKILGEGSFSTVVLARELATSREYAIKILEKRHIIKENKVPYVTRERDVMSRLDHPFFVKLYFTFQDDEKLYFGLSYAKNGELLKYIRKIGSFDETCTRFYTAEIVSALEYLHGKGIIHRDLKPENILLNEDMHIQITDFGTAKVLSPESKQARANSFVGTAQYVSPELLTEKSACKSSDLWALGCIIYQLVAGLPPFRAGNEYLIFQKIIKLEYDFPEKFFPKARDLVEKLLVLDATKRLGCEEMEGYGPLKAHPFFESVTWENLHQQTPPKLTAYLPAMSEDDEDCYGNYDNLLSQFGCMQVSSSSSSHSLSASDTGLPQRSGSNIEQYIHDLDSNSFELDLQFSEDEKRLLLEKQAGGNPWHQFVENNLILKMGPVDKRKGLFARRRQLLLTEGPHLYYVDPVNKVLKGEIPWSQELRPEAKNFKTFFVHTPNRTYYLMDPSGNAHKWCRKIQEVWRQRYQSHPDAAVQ

[31] = molecular target: Serine/threonine-protein kinase pim-1 (Homo sapiens) (UniProt P11309); settings: Compound concentration 1000.0 nM
[32] = system: Tyrosine-protein kinase ABL1 (Homo sapiens), P00519 [F317I]; settings: Compound concentration 1000.0 nM
[33] = molecular target: Death-associated protein kinase 2 (Homo sapiens) (UniProt Q9UIK4); settings: Compound concentration 1000.0 nM
[34] = system: Epidermal growth factor receptor (Homo sapiens), P00533 [G719S]; settings: Compound concentration 1000.0 nM
[35] = molecular target: Ephrin type-B receptor 6 (Homo sapiens) (UniProt O15197); settings: Compound concentration 1000.0 nM
[36] = molecular target: GABA-A receptor; anion channel (Rattus norvegicus) (UniProt O09028+P15431+P18506+P18508+P19969+P20236+P23574+P23576+P28471+P28473+P30191+P62813+P63079+P63138+Q91ZM7+Q9ES14); settings: Compound concentration 10.0 uM
[37] = molecular target: Casein kinase I isoform alpha (Homo sapiens) (UniProt P48729); settings: Compound concentration 1000.0 nM
[38] = molecular target: Serine/threonine-protein kinase pim-2 (Homo sapiens) (UniProt Q9P1W9); settings: Compound concentration 1000.0 nM
Sequence of Serine/threonine-protein kinase pim-2 (Homo sapiens) (Q9P1W9 whole entry, looked up): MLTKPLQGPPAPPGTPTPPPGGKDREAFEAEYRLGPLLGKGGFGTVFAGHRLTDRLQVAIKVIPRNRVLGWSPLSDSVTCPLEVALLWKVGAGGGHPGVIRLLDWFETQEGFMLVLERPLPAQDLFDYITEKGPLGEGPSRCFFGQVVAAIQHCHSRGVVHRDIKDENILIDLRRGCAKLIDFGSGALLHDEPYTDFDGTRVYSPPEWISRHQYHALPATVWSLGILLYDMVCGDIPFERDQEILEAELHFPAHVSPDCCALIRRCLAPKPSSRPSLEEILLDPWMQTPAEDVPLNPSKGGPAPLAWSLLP

[39] = system: Mast/stem cell growth factor receptor Kit (Homo sapiens), P10721 [V559D,T670I]; settings: Compound concentration 1000.0 nM
Sequence of Mast/stem cell growth factor receptor Kit (Homo sapiens), P10721 [V559D,T670I] (P10721 whole entry V559D/T670I): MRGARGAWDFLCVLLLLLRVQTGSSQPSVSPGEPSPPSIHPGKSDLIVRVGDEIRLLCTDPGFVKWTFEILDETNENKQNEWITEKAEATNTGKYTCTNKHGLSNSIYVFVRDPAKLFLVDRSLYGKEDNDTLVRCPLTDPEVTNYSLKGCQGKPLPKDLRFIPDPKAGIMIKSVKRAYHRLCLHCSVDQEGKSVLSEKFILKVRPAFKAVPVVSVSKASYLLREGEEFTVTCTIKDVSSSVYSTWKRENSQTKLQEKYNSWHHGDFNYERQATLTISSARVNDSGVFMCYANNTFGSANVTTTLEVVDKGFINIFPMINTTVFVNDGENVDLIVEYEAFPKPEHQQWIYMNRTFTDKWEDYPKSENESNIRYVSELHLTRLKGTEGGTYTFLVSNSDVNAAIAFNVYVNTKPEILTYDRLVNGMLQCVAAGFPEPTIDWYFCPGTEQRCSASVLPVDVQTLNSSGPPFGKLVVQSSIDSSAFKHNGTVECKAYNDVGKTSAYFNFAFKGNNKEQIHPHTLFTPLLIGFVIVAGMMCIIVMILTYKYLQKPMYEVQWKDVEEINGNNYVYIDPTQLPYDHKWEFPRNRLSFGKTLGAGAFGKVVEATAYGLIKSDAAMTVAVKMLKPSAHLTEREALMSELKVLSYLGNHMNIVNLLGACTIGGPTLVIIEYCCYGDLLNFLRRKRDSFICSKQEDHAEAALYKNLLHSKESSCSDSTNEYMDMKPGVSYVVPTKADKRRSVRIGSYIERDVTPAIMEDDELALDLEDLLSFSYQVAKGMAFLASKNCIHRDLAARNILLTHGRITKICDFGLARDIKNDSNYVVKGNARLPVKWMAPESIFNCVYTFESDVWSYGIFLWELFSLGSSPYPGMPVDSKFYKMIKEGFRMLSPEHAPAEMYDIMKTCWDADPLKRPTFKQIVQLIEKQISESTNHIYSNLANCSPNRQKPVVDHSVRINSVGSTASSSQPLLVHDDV

[40] = molecular target: Serine/threonine-protein kinase VRK2 (Homo sapiens) (UniProt Q86Y07); settings: Compound concentration 1000.0 nM
Sequence of Serine/threonine-protein kinase VRK2 (Homo sapiens) (Q86Y07 whole entry): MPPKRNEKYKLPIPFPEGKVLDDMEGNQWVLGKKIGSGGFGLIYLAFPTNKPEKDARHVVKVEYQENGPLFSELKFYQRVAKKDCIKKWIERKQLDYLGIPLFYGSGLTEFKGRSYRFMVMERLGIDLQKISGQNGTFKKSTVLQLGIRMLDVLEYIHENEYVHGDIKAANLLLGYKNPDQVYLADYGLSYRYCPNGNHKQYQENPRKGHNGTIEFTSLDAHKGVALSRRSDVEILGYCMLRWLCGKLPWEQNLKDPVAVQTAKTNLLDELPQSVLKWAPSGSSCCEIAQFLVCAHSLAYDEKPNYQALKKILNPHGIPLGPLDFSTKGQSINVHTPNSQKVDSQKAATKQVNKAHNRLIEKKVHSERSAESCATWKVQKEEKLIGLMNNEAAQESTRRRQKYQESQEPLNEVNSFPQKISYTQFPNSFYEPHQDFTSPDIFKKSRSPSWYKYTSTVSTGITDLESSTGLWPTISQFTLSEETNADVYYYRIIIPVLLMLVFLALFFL

[41] = molecular target: Insulin receptor-related protein (Homo sapiens) (UniProt P14616); settings: Compound concentration 1000.0 nM
[42] = molecular target: Tyrosine-protein kinase TXK (Homo sapiens) (UniProt P42681); settings: Compound concentration 1000.0 nM
[43] = molecular target: Mast/stem cell growth factor receptor Kit (Homo sapiens) (UniProt P10721); settings: Compound concentration 1000.0 nM
Sequence of Mast/stem cell growth factor receptor Kit (Homo sapiens) (P10721 whole entry): as the sequence (P10721 whole entry V559D/T670I) above, with D559V, I670T counted along it

[44] = molecular target: SNF-related serine/threonine-protein kinase (Homo sapiens) (UniProt Q9NRH2); settings: Compound concentration 1000.0 nM
Sequence of SNF-related serine/threonine-protein kinase (Homo sapiens) (Q9NRH2 whole entry): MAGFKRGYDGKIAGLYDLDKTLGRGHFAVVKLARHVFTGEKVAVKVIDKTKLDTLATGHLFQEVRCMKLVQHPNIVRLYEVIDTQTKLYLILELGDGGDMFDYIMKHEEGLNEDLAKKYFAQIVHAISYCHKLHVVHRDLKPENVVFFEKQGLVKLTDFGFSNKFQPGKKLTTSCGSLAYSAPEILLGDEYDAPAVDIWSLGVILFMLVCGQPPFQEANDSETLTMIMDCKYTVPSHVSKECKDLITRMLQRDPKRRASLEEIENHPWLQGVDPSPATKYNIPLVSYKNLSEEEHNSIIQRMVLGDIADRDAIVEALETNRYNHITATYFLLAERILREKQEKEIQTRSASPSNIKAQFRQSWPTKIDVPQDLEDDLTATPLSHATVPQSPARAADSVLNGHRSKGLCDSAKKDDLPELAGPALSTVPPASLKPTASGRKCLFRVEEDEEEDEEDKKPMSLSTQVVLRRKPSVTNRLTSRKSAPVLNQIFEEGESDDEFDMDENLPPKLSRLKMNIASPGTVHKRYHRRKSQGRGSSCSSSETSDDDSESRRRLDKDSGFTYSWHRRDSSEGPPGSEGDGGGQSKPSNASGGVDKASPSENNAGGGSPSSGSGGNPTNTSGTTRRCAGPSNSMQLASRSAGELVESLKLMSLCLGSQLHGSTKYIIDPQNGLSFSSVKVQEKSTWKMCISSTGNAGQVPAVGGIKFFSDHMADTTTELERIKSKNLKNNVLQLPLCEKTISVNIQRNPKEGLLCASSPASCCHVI

C[C@H](c1cccc(C#N)c1)n1cc(Cl)cc(C(N)=O)c1=N [(R)-9s]
residual activity [1]: 77%
residual activity [2]: 98%
residual activity [3]: 100%
residual activity [4]: 84%
inhibition [5]: -8.15%
residual activity [6]: 91%
residual activity [7]: 100%
residual activity [8]: 100%
residual activity [9]: 85%
residual activity [10]: 100%
residual activity [11]: 56%
residual activity [12]: 77%
residual activity [13]: 86%
residual activity [14]: 100%
residual activity [15]: 98%
residual activity [16]: 100%
residual activity [17]: 99%
residual activity [18]: 100%
residual activity [19]: 67%
residual activity [20]: 88%
residual activity [21]: 100%
residual activity [22]: 97%
residual activity [23]: 100%
residual activity [24]: 100%
residual activity [25]: 86%
residual activity [26]: 100%
residual activity [27]: 86%
residual activity [28]: 63%
residual activity [29]: 100%
residual activity [30]: 100%
residual activity [31]: 100%
residual activity [32]: 89%
residual activity [33]: 100%
residual activity [34]: 100%
residual activity [35]: 87%
inhibition [36]: 0.16%
residual activity [37]: 86%
residual activity [38]: 100%
residual activity [39]: 100%
residual activity [40]: 79%
residual activity [41]: 100%
residual activity [42]: 85%
residual activity [43]: 87%
residual activity [44]: 100%

C[C@@H](c1cccc(C#N)c1)n1cc(Cl)cc(C(N)=O)c1=N [(S)-9s]
residual activity [1]: 100%
residual activity [2]: 95%
residual activity [3]: 100%
residual activity [4]: 91%
inhibition [5]: -6.17%
residual activity [6]: 96%
residual activity [7]: 100%
residual activity [8]: 90%
residual activity [9]: 89%
residual activity [10]: 98%
residual activity [11]: 71%
residual activity [12]: 73%
residual activity [13]: 74%
residual activity [14]: 86%
residual activity [15]: 89%
residual activity [16]: 100%
residual activity [17]: 90%
residual activity [18]: 100%
residual activity [19]: 75%
residual activity [20]: 85%
residual activity [21]: 100%
residual activity [22]: 86%
residual activity [23]: 100%
residual activity [24]: 100%
residual activity [25]: 86%
residual activity [26]: 96%
residual activity [27]: 100%
residual activity [28]: 37%
residual activity [29]: 100%
residual activity [30]: 100%
residual activity [31]: 100%
residual activity [32]: 100%
residual activity [33]: 100%
residual activity [34]: 100%
residual activity [35]: 100%
inhibition [36]: 5.78%
residual activity [37]: 81%
residual activity [38]: 100%
residual activity [39]: 100%
residual activity [40]: 85%
residual activity [41]: 100%
residual activity [42]: 68%
residual activity [43]: 93%
residual activity [44]: 100%
